Patent US11697648B2, “Fused pyrimidine pyridinone compounds as JAK inhibitors” (THERAVANCE BIOPHARMA R&D IP, LLC, priority 2019, dated 2023)

What was measured:
JAK2 = JAK2 (Homo sapiens (Human), UniProt O60674); experiment: Biochemical JAK2 kinase assay (LanthaScreen)
Procedure: (§1) Assay 1: Biochemical JAK and Tyk2 Kinase Assays
(§2) A panel of four LanthaScreen JAK biochemical assays (JAK1, 2, 3 and Tyk2) were carried in a common kinase reaction buffer (50 mM HEPES, pH 7.5, 0.01% Brij-35, 10 mM MgCl2, and 1 mM EGTA). Recombinant GST-tagged JAK enzymes and a GFP-tagged STAT1 peptide substrate were obtained from Life Technologies.
(§3) Serially or discretely diluted compounds were pre-incubated with each of the four JAK enzymes and the substrate in white 384-well microplates (Corning) at ambient temperature for 1 h. ATP was subsequently added to initiate the kinase reactions in 10 μL total volume, with 1% DMSO. […] Kinase reactions were allowed to proceed for 1 hour at ambient temperature before a 10 μL preparation of EDTA (10 mM final concentration) and Tb-anti-pSTAT1 (pTyr701) antibody (Life Technologies, 2 nM final concentration) in TR-FRET dilution buffer (Life Technologies) was added. The plates were allowed to incubate at ambient temperature for 1 h before being read on the EnVision reader (Perkin Elmer). Emission ratio signals (520 nm/495 nm) were recorded and utilized to calculate the percent inhibition values based on DMSO and background controls.
(§4) For dose-response analysis, percent inhibition data were plotted vs. compound concentrations, and IC50 values were determined from a 4-parameter robust fit model with the Prism software (GraphPad Software). Results were expressed as pIC50 (negative logarithm of IC50) and subsequently converted to pKi (negative logarithm of dissociation constant, Ki) using the Cheng-Prusoff equation.

JAK1 = JAK1 (Homo sapiens (Human), UniProt P23458); experiment: Biochemical JAK1 kinase assay (LanthaScreen)
Outline: (§5)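 GST-JAK + GFP-STAT1 peptide, HEPES pH 7.5/MgCl2/EGTA/Brij-35 buffer; cpd preincubation 1 h RT; ATP start, 1 h RT; stop with 10 mM EDTA + 2 nM Tb-anti-pSTAT1; TR-FRET 520/495. 4-parameter IC50 → pKi (Cheng-Prusoff).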

Tyk2 = Tyk2 (Homo sapiens (Human), UniProt P29597); experiment: Biochemical Tyk2 kinase assay (LanthaScreen)
Procedure: as §1, §2, §3, §4

[1] = tested on: IL-2 stimulated STAT5 phosphorylation in Tall-1 human T cell line (JAK3); experiment: Cellular JAK3 potency assay: inhibition of IL-2 stimulated pSTAT5 in Tall-1 T cells; type: cell-based
Outline: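 Tall-1 cells, 45,000 per well, preincubated 1 hour with compound at 37 °C, then stimulated 30 minutes with IL-2 at 300 ng/ml final. pSTAT5 (Tyr694/699) in lysates quantified by AlphaLISA SureFire Ultra. pIC50 derived from inhibition curves, given as mean with SD.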

JAK3 = JAK3 (Homo sapiens (Human), UniProt P52333); experiment: Biochemical JAK3 kinase assay (LanthaScreen)
Outline: as §5

[2] = IL-2 stimulated pSTAT5, Tall-1 T cells
[3] = selectivity JAK3 over JAK1, difference of pKi
[4] = IL-2 stimulated pSTAT5 in Tall-1 T cells
[5] = selectivity, difference of pKi values

Tyk2, sequence (P29597 whole entry): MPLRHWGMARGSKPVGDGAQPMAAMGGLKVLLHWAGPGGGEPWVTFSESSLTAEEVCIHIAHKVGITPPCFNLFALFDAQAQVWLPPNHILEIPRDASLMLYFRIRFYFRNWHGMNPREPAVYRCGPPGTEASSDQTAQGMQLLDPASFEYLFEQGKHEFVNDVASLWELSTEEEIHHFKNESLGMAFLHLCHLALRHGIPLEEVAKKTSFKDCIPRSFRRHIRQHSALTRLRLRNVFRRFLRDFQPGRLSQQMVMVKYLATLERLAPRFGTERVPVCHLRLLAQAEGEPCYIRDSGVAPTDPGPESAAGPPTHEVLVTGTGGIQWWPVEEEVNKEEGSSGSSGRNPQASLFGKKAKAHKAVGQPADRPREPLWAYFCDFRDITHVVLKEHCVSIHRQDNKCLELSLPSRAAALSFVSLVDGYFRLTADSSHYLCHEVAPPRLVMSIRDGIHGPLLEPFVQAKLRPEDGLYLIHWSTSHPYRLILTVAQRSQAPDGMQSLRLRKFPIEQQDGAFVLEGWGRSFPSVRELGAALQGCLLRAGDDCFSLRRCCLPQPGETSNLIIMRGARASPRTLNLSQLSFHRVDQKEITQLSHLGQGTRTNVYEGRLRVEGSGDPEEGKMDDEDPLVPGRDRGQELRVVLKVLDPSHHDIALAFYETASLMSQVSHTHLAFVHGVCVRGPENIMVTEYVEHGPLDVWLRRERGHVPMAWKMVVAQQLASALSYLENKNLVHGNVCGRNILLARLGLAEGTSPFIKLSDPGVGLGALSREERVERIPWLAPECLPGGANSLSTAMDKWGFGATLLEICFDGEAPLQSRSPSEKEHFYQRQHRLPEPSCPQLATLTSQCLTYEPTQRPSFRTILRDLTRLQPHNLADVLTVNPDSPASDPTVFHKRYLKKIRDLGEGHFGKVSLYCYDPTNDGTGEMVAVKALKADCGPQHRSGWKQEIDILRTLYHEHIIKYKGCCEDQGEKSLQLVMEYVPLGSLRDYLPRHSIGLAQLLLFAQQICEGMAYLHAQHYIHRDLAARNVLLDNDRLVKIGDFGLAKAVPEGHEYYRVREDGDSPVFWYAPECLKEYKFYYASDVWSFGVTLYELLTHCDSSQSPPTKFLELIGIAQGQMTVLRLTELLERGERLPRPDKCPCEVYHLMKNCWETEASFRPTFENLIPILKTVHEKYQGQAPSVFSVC
JAK3, sequence (P52333 whole entry): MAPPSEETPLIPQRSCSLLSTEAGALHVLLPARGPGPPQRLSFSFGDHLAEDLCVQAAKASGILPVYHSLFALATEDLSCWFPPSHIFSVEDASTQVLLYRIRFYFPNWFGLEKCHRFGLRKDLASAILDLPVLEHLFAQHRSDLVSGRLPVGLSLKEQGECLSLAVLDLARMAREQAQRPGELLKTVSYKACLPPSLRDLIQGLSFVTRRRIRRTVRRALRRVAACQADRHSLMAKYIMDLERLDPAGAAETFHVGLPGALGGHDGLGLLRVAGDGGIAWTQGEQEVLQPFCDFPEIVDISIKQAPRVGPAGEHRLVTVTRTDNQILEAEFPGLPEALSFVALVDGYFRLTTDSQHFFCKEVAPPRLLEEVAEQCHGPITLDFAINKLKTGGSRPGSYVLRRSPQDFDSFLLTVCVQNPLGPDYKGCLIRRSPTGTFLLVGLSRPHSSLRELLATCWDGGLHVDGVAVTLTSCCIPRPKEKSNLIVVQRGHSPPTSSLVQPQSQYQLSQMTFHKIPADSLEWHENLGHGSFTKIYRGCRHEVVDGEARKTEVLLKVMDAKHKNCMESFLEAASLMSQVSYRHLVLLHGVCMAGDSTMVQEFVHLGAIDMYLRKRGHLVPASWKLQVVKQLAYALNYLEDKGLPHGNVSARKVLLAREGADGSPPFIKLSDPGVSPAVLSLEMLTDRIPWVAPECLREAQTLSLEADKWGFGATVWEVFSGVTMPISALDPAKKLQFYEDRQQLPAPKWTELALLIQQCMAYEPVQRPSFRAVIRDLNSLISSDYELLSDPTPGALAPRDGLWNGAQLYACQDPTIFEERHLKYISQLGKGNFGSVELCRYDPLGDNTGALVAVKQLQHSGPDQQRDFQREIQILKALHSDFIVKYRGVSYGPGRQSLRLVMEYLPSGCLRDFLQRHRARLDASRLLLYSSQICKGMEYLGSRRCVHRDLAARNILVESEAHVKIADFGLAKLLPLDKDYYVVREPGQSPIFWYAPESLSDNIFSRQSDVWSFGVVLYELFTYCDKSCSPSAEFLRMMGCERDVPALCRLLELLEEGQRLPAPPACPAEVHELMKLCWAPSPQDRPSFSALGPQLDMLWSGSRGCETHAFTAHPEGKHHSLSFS
JAK1, sequence (P23458 whole entry): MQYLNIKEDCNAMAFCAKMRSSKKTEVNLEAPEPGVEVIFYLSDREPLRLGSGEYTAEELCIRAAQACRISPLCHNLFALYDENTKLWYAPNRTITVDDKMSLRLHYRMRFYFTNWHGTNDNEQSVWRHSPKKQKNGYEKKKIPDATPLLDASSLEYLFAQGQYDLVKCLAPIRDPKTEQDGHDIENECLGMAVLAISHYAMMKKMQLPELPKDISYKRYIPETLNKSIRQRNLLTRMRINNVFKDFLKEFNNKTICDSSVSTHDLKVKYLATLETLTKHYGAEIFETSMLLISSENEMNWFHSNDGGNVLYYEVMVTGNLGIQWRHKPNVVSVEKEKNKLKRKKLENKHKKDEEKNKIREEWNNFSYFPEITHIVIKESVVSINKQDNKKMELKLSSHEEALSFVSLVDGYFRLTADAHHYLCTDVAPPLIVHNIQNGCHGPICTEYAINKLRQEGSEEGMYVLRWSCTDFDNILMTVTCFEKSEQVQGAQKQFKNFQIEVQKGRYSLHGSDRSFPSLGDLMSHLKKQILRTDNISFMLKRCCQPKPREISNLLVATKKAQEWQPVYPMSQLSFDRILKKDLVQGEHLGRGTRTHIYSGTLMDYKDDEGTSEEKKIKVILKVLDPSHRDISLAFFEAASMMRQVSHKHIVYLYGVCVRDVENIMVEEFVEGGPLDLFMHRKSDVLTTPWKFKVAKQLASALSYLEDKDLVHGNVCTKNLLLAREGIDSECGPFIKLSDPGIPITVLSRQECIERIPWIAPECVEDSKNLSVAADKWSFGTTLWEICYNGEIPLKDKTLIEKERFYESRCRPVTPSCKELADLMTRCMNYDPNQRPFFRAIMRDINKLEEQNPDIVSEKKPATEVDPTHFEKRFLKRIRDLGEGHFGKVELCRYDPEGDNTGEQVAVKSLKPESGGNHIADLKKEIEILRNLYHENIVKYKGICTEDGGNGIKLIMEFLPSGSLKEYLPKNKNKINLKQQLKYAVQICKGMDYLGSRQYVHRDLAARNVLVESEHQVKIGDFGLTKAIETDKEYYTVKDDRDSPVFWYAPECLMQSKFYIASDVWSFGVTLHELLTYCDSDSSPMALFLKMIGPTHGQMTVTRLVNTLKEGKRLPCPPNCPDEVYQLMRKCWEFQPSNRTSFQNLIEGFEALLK
JAK2, sequence (O60674 whole entry): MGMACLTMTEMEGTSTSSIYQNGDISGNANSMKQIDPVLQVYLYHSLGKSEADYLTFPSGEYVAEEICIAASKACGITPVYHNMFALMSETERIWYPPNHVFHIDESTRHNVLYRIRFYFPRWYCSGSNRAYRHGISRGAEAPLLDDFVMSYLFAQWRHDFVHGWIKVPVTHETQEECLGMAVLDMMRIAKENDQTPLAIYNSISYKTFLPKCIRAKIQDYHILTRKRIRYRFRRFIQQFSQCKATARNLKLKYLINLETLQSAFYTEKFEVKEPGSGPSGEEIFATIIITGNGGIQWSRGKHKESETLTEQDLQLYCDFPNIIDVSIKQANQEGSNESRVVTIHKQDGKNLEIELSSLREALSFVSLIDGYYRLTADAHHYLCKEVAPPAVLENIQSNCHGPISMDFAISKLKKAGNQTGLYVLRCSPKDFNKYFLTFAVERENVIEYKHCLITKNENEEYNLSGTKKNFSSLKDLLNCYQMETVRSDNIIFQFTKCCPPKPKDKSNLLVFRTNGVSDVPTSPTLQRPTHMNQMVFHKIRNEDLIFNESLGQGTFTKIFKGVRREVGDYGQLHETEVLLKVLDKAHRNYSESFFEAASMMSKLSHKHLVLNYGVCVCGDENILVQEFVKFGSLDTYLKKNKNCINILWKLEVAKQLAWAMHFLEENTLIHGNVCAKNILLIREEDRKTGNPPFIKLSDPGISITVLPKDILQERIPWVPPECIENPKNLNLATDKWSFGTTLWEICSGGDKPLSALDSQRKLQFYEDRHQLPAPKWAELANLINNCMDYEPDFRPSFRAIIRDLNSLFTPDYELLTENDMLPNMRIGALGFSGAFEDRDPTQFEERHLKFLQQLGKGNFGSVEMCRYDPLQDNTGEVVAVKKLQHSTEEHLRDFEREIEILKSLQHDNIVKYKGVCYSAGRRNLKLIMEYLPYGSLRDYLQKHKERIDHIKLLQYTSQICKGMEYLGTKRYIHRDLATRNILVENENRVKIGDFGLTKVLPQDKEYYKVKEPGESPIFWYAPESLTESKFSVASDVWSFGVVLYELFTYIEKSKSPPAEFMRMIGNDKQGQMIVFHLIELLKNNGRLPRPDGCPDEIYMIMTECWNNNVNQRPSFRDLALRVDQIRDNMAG

SMILES: C=CC(=O)N1CC(CCn2c(=O)ccc3cnc(Nc4ccc(N5CCN(C(C)CC)CC5)cc4)nc32)C1 (stereo not drawn) [Example 115]
- JAK 2 (pKi) (JAK2): E (E represents a pKi value of 7 or below (Ki of 100 nM or above))
- JAK 1 (pKi) (JAK1): E (E represents a pKi value of 7 or below (Ki of 100 nM or above))
- Tyk 2 (pKi) (Tyk2): E (E represents a pKi value of 7 or below (Ki of 100 nM or above))
- Tall-1 (pIC50) [1, 2]: A (A represents a pIC50 value≥7.5 (IC50≤32 nM))
- JAK 3 (pKi) (JAK3): B (B represents pKi value between 9 and 10 (Ki between 1 nM and 0.1 nM))
- JAK3 (pKi)-JAK1 (pKi) (JAK3; [3]): A (A represents a value of 3 or above)

SMILES: C=CC(=O)N1CC(CCn2c(=O)ccc3cnc(Nc4cnn(CC(C)(C)O)c4)nc32)C1 [Example 57]
- JAK 2 (pKi) (JAK2): E (E represents a pKi value of 7 or below (Ki of 100 nM or above))
- JAK 1 (pKi) (JAK1): E (E represents a pKi value of 7 or below (Ki of 100 nM or above))
- Tyk 2 (pKi) (Tyk2): E (E represents a pKi value of 7 or below (Ki of 100 nM or above))
- Tall-1 (pIC50) [1, 2]: C (C represents a pIC50 value between 6 and 6.7 (IC50 between 1 μM and 200 nM))
- JAK 3 (pKi) (JAK3): B (B represents pKi value between 9 and 10 (Ki between 1 nM and 0.1 nM))
- JAK3 (pKi)-JAK1 (pKi) (JAK3; [3]): A (A represents a value of 3 or above)

SMILES: C=CC(=O)N1CC(CCn2c(=O)ccc3cnc(Nc4ccc(N5C[C@@H](C)N(C)[C@@H](C)C5)cc4)nc32)C1 [Example 247]
- JAK 2 (pKi) (JAK2): E (E represents a pKi value of 7 or below (Ki of 100 nM or above))
- JAK 1 (pKi) (JAK1): E (E represents a pKi value of 7 or below (Ki of 100 nM or above))
- Tyk 2 (pKi) (Tyk2): E (E represents a pKi value of 7 or below (Ki of 100 nM or above))
- Tall-1 (pIC50) [1, 4]: A (A represents a pIC50 value≥7.5 (IC50≤32 nM))
- JAK 3 (pKi) (JAK3): B (B represents pKi value between 9 and 10 (Ki between 1 nM and 0.1 nM))
- JAK3 (pKi)-JAK1 (pKi) (JAK3; [5]): A (A represents a value of 3 or above)

SMILES: C=CC(=O)N1CC(CCn2c(=O)ccc3cnc(Nc4cnn(C(C)(C)COC)c4)nc32)C1 [Example 58]
- JAK 2 (pKi) (JAK2): E (E represents a pKi value of 7 or below (Ki of 100 nM or above))
- JAK 1 (pKi) (JAK1): E (E represents a pKi value of 7 or below (Ki of 100 nM or above))
- Tyk 2 (pKi) (Tyk2): E (E represents a pKi value of 7 or below (Ki of 100 nM or above))
- Tall-1 (pIC50) [1, 2]: B (B represents a pC50 value between 6.7 (included) and 7.5 (IC50 between 200 nM and 32 nM))
- JAK 3 (pKi) (JAK3): B (B represents pKi value between 9 and 10 (Ki between 1 nM and 0.1 nM))
- JAK3 (pKi)-JAK1 (pKi) (JAK3; [3]): A (A represents a value of 3 or above)

SMILES: C=CC(=O)N1CCN(CCn2c(=O)ccc3cnc(Nc4ccc(N5C[C@@H](C)N(C)[C@@H](C)C5)cc4)nc32)[C@@H](C)C1 [Example 249]
- JAK 2 (pKi) (JAK2): E (E represents a pKi value of 7 or below (Ki of 100 nM or above))
- JAK 1 (pKi) (JAK1): E (E represents a pKi value of 7 or below (Ki of 100 nM or above))
- Tyk 2 (pKi) (Tyk2): E (E represents a pKi value of 7 or below (Ki of 100 nM or above))
- Tall-1 (pIC50) [1, 4]: A (A represents a pIC50 value≥7.5 (IC50≤32 nM))
- JAK 3 (pKi) (JAK3): B (B represents pKi value between 9 and 10 (Ki between 1 nM and 0.1 nM))
- JAK3 (pKi)-JAK1 (pKi) (JAK3; [5]): A (A represents a value of 3 or above)

SMILES: C=CC(=O)N1CCN(CCn2c(=O)ccc3cnc(Nc4cnn(-c5ccccc5)c4)nc32)[C@@H](CC)C1 [Example 195]
- JAK 2 (pKi) (JAK2): E (E represents a pKi value of 7 or below (Ki of 100 nM or above))
- JAK 1 (pKi) (JAK1): E (E represents a pKi value of 7 or below (Ki of 100 nM or above))
- Tyk 2 (pKi) (Tyk2): E (E represents a pKi value of 7 or below (Ki of 100 nM or above))
- Tall-1 (pIC50) [1, 2]: B (B represents a pC50 value between 6.7 (included) and 7.5 (IC50 between 200 nM and 32 nM))
- JAK 3 (pKi) (JAK3): B (B represents pKi value between 9 and 10 (Ki between 1 nM and 0.1 nM))
- JAK3 (pKi)-JAK1 (pKi) (JAK3; [3]): A (A represents a value of 3 or above)

SMILES: C=CC(=O)N1CC(CCn2c(=O)ccc3cnc(Nc4cnn(Cc5ccccc5)c4)nc32)C1 [Example 239]
- JAK 2 (pKi) (JAK2): E (E represents a pKi value of 7 or below (Ki of 100 nM or above))
- JAK 1 (pKi) (JAK1): E (E represents a pKi value of 7 or below (Ki of 100 nM or above))
- Tyk 2 (pKi) (Tyk2): E (E represents a pKi value of 7 or below (Ki of 100 nM or above))
- Tall-1 (pIC50) [1, 4]: B (B represents a pC50 value between 6.7 (included) and 7.5 (IC50 between 200 nM and 32 nM))
- JAK 3 (pKi) (JAK3): B (B represents pKi value between 9 and 10 (Ki between 1 nM and 0.1 nM))
- JAK3 (pKi)-JAK1 (pKi) (JAK3; [5]): A (A represents a value of 3 or above)
